≈ marks a conversion by molar mass, not a printed value. Entries after “also recorded” stand apart in the source; their conditions may differ. Where only a bound is given, the exact number is not on record here.

Data set [1] has as its target T1, F508del-CFTR in CFBE41o– cells (Homo sapiens, UniProt Q99942). As to the kind of experiment: HS-YFP microfluorimetric assay of F508del-CFTR rescue (corrector activity). Type of data set: cell-based. As to conditions: CFBE41o– cells co-expressing F508del-CFTR and HS-YFP, 24 h treatment, Figure 5. The procedure:
As a primary screen, the new thiadiazole derivatives 1–46 (Table 1) were tested for their ability to rescue the F508del-CFTR trafficking defect in CFBE41o^– cells, stably co-expressing F508del-CFTR and the HS-YFP (Figure 5). This cell line has been extensively used by our group, in combination with the microfluorimetric assay based on the HS-YFP, to identify and characterize many CFTR correctors.[39],[47] This assay relies on the hypothesis that RNF5 inhibition results in increased mutant CFTR processing and activity. Therefore, it can easily identify putative RNF5 inhibitors, but not other types of RNF5-binding compounds that could have no effect or have a negative effect on CFTR function, such as RNF5 activators (see analog-1). Thus, we opted for this assay as our primary aim was the identification of RNF5 inhibitors as a possible therapeutic strategy in CF. Twenty-four hours after seeding on 96-well plates, CFBE41o^– cells stably expressing F508del-CFTR and the HS-YFP were treated with test compounds at the desired concentration, one compound per well. Cells treated with vehicle alone (DMSO) and with corrector VX-809 (1 μM), respectively, served as negative and positive controls. At the time of the assay, cells were washed with PBS containing (in […]) 137 NaCl, 2.7 KCl, 8.1 Na2HPO4, 1.5 KH2PO4, 1 CaCl2, and 0.5 MgCl2. Cells were then incubated for 25 min with […] of PBS plus forskolin (20 μM) and VX-770 (1 μM) to maximally stimulate F508del-CFTR. Cells were then transferred to a microplate reader (FluoStar Galaxy; BMG Labtech, Offenburg, Germany) for CFTR activity determination. The plate reader was equipped with high-quality excitation (HQ500/20X: 500 ± 10 nm) and emission (HQ535/30M: 535 ± 15 nm) filters for YFP (Chroma Technology). Each assay comprised a continuous 14 s fluorescence reading and 2 s before and 12 s after injection of […] of an iodide-containing solution (PBS with Cl^– replaced by I^–; final I^– concentration […]). Data were normalized to the initial background-subtracted fluorescence. To determine the I^– influx rate, the final 11 s of the data for each well was fitted with an exponential function to extrapolate initial slope (dF/dt). Reproducibility of results was confirmed by performing three independent experiments. CFBE41o^– cells co-expressing F508del-CFTR and the HS-YFP were reverse-transfected with 50 nM (final concentration) siRNAs (Stealth, Life Technologies) in the presence of lipofectamine 2000 as a transfection agent. The following day, the medium was changed, and the cells were incubated at 37 °C for additional 24 h treated with test compounds at the desired concentration, prior to processing the cells for the YFP-based functional assay.

The nature of data set [2]: Solubility and aggregation in PBS buffer by NMR (SPAM filter, 1H 1D and WaterLOGSY). It counts as physicochemical. As to conditions: PBS pH 7.5, 1 μM ZnCl2, 1 mM DTT, 10% D2O, 1% DMSO-d6; for solubility: PBS buffer, aqueous buffer, kinetic from dmso stock, theoretical concentration 20 μM, read-out: solubility in PBS buffer by NMR, 20 μM; for aggregation in PBS buffer by NMR: WaterLOGSY; for solubility at 50 µM: theoretical concentration 50 μM; for solubility at 100 µM: theoretical concentration 100 μM. The text has this:
Under these circumstances, it was decided to explore the solubility of all the synthetized compounds, regardless of their biological activities, to find a suitable candidate for the validation of our working hypothesis, i.e., that the compounds exert their activities by directly binding to RNF5. For that, we first calculated the predicted octanol/water partition coefficient (log Po/w) and the predicted aqueous solubility (log S) of all the analogues by QikProp (Schrödinger Release 2022-1: QikProp, Schrödinger, LLC, New York, NY, 2021, Table S1). […] To shrink down the number of compounds for solubility experiments, just the ones that had −2.0 < log Po/w < 6 and −6.5 < log S <0.5 values were selected. Among them, the PBS solubility was determined for five representative analogues: (i) 12 and 29 bearing different substituents on the benzyl group A; (ii) 34 and 40 showing the replacement of rings B and C with pyridine-4-yl moieties; (iii) 42 in which the N-phenylbenzamidine portion was replaced with a pyridine-2-yl moiety (Table 1).
All the NMR experiments were recorded at 298 K using a 5 mm CryoProbe QCI ^1H/^19F–^13C/^15N–D quadruple resonance, a shielded z-gradient coil, and an automatic sample changer SampleJet NMR system with temperature control. The solubility of the compounds were evaluated by ^1H 1D experiments and aggregation by WaterLOGSY, testing the compounds in buffer PBS pH 7,5, 1 μM ZnCl2, 1 mM DTT, 10% D2O (for the lock signal), and 1% DMSO-d6 at the theoretical concentrations of 20, 50, and 100 μM in the presence of 200 μM 4-trifluoromethyl benzoic acid (internal reference). For all samples, a 1D ^1H NMR experiment was recorded, the water suppression was obtained using the standard NOESY (nuclear Overhauser effect spectroscopy) preset Bruker pulse sequence, with 64k data points, a spectral width (sw) of 30 ppm, 64 scans, acquisition time (aq) of 1.835 s, a relaxation delay (d1) of 4 s, and a mixing time of 10 ms. […] The data were multiplied by an exponential window function with 1 Hz line broadening prior to Fourier transformation. For NMR binding experiments, the compounds were tested at 50 μM in buffer PBS pH 7.5, 1 μM ZnCl2, 1 mM DTT, 10% D2O (for the lock signal), and 1% DMSO-d6 in the absence and in the presence of 3 μM RNF5. WaterLOGSY experiments were recorded with the same parameters used in solubility assays, but with a higher number of scans (512); STD experiments were recorded with 128 scans, with two on (0.7 and 1 ppm) and one off (−50 ppm) resonance spectra, a Gaussian-shaped train pulse of 50 ms each was employed, with a total saturation time of the protein envelope of 5, 3, 2, 1.5, 1, or 0.5 s. A T1ρ filter of 2 ms was employed in STD experiments to eliminate the background signals from the protein. The STD spectrum was obtained by subtraction of the on-resonance spectrum from the off-resonance spectrum. Subtraction was performed by phase cycling to minimize artifacts arising from magnet and temperature instabilities.

In a further data set the test system is CFBE41o– cells. As to the kind of experiment: Apoptosis assay (Hoechst 33342 / propidium iodide, high-content imaging). To be noted: 24 h, 100 μM. Type of data set: cell-based, human. The procedure: We performed a preliminary evaluation of the effect of chronic treatment with selected analogues on the proliferation and apoptosis of CFBE41o^– cells (Figure 7). Indeed, RNF5 can modulate cell motility and proliferation by regulating paxillin ubiquitylation and thus its degradation.[53] For the proliferation assay, CFBE41o^– cells stably co-expressing F508del-CFTR and the HS-YFP were treated with test compounds (5 μM), VX-809 (1 μM), or vehicle alone (DMSO) for 48 h. Cell proliferation was then monitored by measuring the area covered by the cells based on the YFP signal. For the apoptosis assay, 24 h after plating, CFBE41o^– cells stably expressing F508del-CFTR were treated with test compounds (5, 20, and 100 μM), VX-809 (1 μM), MG132 (50 μM), or vehicle alone (DMSO) for 24 h. Cell nuclei were then counterstained with Hoechst 33342 and propidium iodide to visualize the total and apoptotic cell count, respectively, and imaged by using an Opera Phenix high-content screening system.
CFBE41o^– cells stably expressing F508del-CFTR and the HS-YFP were plated at a low density (5000 cell/well) on 96-well plates suitable for high-content imaging. […] Cell proliferation was monitored (by exploiting the YFP signal to determine the area covered by cells) for 48 h using the Opera Phenix (PerkinElmer) high-content screening system. […] Data are expressed as means ± SEM, n = 6. […]

Data set [3] has as its system ATG4B-mediated basal autophagy in F508del-CFTR-expressing CFBE41o– cells. In words: Labeling of autophagic vacuoles with monodansylcadaverine (MDC). It counts as cell-based, human. To be noted: test compounds 5 μM 24 h; torin-1 20 nM and SAR-405 2 μM in the last 3 h. The text has this:
To further support our hypothesis that CFTR rescue following treatment with test compounds was indeed due to RNF5 inhibition, we considered additional biological processes known to be regulated by RNF5 ligase activity. To this aim, we focused our attention on ATG4B, a known regulator of basal autophagy, whose degradation is mediated by RNF5 activity.[54]In vivo ubiquitination experiments previously confirmed that inh-2 inhibits ATG4B degradation, thus increasing the basal level of autophagy.[40] […] We thus evaluated the effect of inh-2 analogues on induction of the autophagy pathway. To this aim, we monitored the formation of autophagic vacuoles in F508del-CFTR-expressing CFBE41o^– cells (Figure 8) by using the autolysosome marker monodansylcadaverine (MDC). MDC accumulates inside autophagosomes. After fusion of autophagosomes with lysosomes, MDC fluorescence increases due to the acidic environment.[55] Therefore, F508del-CFTR-expressing CFBE41o^– cells were treated for 24 h with test compounds (5 μM), VX-809 (1 μM), or DMSO alone (vehicle). In the last 3 h of incubation, we added torin-1 (20 nM), a known autophagy inducer, and SAR-405 (2 μM), a potent inhibitor of the autophagic pathway. The cells were then loaded with MDC and evaluated by high-content confocal imaging to detect signal spots (corresponding to autophagic vacuoles) in each cell.
CFBE41o^– cells stably expressing F508del-CFTR and the HS-YFP were plated (50,000 cells/well) on good-quality clear-bottom 96-well black microplates suitable for high-content imaging. After 24 h, cells were treated with test compounds or DMSO (as the negative control). […] After 24 h, cells were incubated with 50 μM MDC (Sigma-Aldrich) in PBS at 37 °C for 10 min.[62] After incubation, cells were washed three times with PBS and immediately analyzed. High-content imaging and data analysis were performed using the Opera Phenix (PerkinElmer) high-content screening system. Wells were imaged in confocal mode using a 40× water-immersion objective. The MDC signal was laser-excited at 405 nm, and the emission wavelengths were collected between 435 and 550 nm. Data analysis of MDC spot number was performed using the Harmony software (ver 4.5) of the Opera Phenix high-content system. Data are expressed as means ± SEM, n = 3 independent experiments. Statistical significance was tested by parametric ANOVA followed by the Dunnet multiple comparisons test (all groups against the control group).

Data set [4] deals with T1, F508del-CFTR in CFBE41o– cells. Also on record: method as in PMID 29754957. To be noted: cited from earlier work.

T1 sequence (Q99942 2-180): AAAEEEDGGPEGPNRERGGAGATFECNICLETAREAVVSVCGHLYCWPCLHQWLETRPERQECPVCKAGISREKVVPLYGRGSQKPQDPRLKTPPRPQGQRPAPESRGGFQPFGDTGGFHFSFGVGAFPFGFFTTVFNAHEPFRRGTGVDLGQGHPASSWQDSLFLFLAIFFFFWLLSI
T1 sequence (P13569 with tags, fused parts or gaps DEL508-508 partner): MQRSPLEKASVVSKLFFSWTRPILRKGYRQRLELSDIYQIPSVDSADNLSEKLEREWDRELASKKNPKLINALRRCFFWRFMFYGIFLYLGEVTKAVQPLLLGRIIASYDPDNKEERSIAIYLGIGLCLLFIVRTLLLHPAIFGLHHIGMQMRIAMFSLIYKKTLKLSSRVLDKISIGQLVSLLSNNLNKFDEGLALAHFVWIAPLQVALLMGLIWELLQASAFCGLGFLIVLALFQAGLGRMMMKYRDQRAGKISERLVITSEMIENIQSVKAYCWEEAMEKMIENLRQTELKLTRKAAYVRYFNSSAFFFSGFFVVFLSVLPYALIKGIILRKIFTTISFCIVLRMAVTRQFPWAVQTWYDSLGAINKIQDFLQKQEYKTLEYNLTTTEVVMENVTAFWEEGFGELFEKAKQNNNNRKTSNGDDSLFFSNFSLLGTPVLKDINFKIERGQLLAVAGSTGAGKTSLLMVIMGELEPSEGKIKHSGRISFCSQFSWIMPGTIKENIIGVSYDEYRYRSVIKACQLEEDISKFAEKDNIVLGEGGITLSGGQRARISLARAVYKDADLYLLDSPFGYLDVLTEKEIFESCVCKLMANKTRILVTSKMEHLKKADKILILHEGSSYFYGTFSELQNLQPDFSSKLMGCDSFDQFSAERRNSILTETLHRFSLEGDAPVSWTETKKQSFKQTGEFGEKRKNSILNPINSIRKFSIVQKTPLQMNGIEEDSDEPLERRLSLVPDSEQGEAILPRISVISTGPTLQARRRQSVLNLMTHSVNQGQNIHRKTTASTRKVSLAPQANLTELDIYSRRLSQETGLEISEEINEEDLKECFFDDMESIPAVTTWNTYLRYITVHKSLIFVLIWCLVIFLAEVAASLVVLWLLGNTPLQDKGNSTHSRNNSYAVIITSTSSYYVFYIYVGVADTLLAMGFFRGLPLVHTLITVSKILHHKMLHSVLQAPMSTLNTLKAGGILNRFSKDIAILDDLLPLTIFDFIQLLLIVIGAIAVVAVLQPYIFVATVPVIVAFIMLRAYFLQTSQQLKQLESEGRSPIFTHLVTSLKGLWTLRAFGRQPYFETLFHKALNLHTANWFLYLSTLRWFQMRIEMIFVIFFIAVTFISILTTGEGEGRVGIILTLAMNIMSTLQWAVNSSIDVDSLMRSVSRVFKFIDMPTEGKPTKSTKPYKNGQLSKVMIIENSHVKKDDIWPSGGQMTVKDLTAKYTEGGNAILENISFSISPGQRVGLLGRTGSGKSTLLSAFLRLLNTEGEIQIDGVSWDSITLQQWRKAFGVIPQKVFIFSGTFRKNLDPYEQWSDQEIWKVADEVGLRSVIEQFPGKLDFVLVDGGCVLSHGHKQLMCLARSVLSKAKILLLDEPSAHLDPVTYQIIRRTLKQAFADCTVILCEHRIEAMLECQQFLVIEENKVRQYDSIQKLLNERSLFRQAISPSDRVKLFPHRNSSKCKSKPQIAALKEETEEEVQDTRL

Turning to `Cc1ns/c(=N\C(=N\c2ccccc2)c2ccccc2)n1Cc1cccc(O)c1` [Compound 17, (E)-N-((Z)-4-(3-Hydroxybenzyl)-3-methyl-1,2,4-thiadiazol-5(4H)-ylidene)-N′-phenylbenzimidamide], the “F508del-CFTR corrector activity compared with inh-2 (CFTR activity, primary screen)” value in data set [1] is given as “increased activity”. Also, in data set [2], the solubility is less than 5 µM, the “aggregation in PBS buffer by NMR” value was “no”, the solubility at 50 µM is on record as less than 5 µM and the solubility at 100 µM is on record as less than 5 µM. Moreover, the cell apoptosis entry with CFBE41o– cells is on record as “markedly increased cell apoptosis”.

Take `CNc1cccc(Cn2c(C)ns/c2=N\C(=N\c2ccccc2)c2ccccc2)c1` [Compound 21, (E)-N-((Z)-3-Methyl-4-(3-(methylamino)benzyl)-1,2,4-thiadiazol-5(4H)-ylidene)-N′-phenylbenzimidamide]: the “F508del-CFTR corrector activity compared with inh-2 (CFTR activity, primary screen)” value in data set [1] is “did not affect the activity”. The “number of autophagic vacuoles (MDC signal spots)” value (“number of autophagic vacuoles” for short) in data set [3] is recorded as “significantly increased”.

As to `Cc1ns/c(=N\C(=N\c2ccccc2)c2ccncc2)n1Cc1ccccc1` [Compound 34, (E)-N-((Z)-4-Benzyl-3-methyl-1,2,4-thiadiazol-5(4H)-ylidene)-N′-phenylisonicotinimidamide], in data set [1], the “F508del-CFTR corrector activity compared with inh-2 (CFTR activity, primary screen)” value is “maintaining the activity equal to inh-2”. In data set [2], the solubility amounted to 10 µM (≈ 3.85 µg/mL) and the “aggregation in PBS buffer by NMR” value was “no”. The “number of autophagic vacuoles” value in data set [3] is recorded as “significantly decreased”.

Take `Cc1ns/c(=N\C(=N\c2ccccc2)c2ccccc2)n1-c1ccccc1` [analog-1, reference compound]: the “CFTR corrector activity (in words)” value in data set [4] is on record as “no activity as a CFTR corrector; also recorded: lack of CFTR corrector activity”. Further, in data set [2], the solubility is less than 5 µM, the “aggregation in PBS buffer by NMR” value is “no”, the solubility at 50 µM is recorded as less than 5 µM and the solubility at 100 µM is reported as less than 5 µM. The “number of autophagic vacuoles” value in data set [3] is “significantly decreased”.

The record behind these values is publication PMC10388311, “Innovative Strategy toward Mutant CFTR Rescue in Cystic Fibrosis: Design and Synthesis of Thiadiazole Inhibitors of the E3 Ligase RNF5” (Journal of Medicinal Chemistry, 2023).
